In patent publication US20220009920A1 (GB005, Inc., priority 2020, published 2022):
Where two headings read alike, the source gives them in different places.

What was measured:
Assay in all cases: Large panel kinase profiling
Type in all cases: biochemical
JAK2(JH1JH2) = target: T1, JAK2(JH1JH2) (Homo sapiens, UniProt O60674); details: 1 μM test article, 1 mM ATP
T1 construct: JAK2(JH1JH2)
Method in brief: (§1)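 Steps: combine kinase, CSox-Sensor substrate, 1 mM ATP and 1 μM compound; seal and incubate at 30° C.; read top fluorescence kinetically each minute, Ex 360 nm/Em 485 nm.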

JAK2(JH1) = target: T2, JAK2(JH1) (Homo sapiens, UniProt O60674); details: 1 μM test article, 1 mM ATP
T2 construct: JAK2(JH1)
T2 sequence (O60674 849-1124 limits assumed, species assumed): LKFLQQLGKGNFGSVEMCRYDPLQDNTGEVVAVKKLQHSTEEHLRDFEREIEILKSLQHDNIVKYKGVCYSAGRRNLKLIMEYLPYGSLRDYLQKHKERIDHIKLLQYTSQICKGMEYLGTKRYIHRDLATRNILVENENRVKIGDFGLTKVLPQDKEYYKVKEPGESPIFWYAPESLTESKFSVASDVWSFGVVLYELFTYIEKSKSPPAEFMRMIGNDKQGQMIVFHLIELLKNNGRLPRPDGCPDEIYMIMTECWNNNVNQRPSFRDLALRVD
Method in brief: as §1

CHUK/IKKA = target: T3, CHUK/IKKA (Homo sapiens, UniProt O15111); details: 1 μM test article, 1 mM ATP
T3 construct: AssayQuant Technologies, Inc. (ran the panel)
T3 sequence (O15111 1-745): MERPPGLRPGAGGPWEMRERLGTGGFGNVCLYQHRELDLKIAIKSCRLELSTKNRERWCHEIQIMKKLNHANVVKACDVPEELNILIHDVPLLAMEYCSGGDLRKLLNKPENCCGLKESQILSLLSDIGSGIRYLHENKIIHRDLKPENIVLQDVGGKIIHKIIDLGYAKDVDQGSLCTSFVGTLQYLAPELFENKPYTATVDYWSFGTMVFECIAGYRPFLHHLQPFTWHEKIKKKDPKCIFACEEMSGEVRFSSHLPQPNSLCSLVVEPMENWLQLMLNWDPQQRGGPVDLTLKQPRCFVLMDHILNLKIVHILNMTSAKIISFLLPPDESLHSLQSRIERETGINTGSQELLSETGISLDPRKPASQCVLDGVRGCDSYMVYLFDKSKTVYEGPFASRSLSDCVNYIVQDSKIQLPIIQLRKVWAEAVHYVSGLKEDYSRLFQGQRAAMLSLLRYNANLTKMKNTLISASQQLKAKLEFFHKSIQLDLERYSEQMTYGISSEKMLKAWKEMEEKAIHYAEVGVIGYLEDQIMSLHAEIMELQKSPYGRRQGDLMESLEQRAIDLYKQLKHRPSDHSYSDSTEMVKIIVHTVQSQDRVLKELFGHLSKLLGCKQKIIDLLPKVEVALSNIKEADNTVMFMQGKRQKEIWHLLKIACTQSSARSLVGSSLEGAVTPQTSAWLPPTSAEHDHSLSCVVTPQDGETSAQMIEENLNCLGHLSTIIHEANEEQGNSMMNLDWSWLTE
Method in brief: as §1

PTK2B = PTK2B (Homo sapiens, UniProt Q14289)
Sequence of PTK2B (Q14289 whole entry, species assumed): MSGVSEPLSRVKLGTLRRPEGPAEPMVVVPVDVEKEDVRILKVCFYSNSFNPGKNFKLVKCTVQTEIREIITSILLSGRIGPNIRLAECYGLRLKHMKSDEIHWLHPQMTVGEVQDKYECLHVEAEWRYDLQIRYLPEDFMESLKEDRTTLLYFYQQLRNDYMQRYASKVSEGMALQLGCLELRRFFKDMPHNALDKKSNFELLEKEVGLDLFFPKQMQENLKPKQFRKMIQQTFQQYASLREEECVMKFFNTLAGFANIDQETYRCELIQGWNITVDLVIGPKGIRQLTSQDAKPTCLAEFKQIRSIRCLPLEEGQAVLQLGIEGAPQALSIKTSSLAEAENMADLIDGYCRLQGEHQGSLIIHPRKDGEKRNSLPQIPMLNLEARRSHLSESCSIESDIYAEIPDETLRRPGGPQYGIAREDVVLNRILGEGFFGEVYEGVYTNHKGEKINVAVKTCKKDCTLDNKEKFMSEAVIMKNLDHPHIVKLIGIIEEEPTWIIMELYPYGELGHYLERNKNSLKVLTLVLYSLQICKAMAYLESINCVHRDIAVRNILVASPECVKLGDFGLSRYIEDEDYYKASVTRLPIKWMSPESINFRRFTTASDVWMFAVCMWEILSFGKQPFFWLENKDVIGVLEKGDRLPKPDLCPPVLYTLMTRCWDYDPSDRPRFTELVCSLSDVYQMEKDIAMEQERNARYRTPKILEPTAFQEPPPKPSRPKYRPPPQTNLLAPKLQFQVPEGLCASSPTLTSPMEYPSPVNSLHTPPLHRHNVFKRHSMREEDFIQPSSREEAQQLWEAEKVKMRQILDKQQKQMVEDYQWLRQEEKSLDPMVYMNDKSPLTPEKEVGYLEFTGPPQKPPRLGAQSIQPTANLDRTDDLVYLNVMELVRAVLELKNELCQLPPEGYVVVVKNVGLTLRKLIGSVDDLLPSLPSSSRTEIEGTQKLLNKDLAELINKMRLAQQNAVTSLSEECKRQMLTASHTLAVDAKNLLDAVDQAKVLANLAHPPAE
Method in brief: as §1

RPS6KA4/MSK2 = target: T4, RPS6KA4/MSK2 (Homo sapiens, UniProt O75676); details: 1 μM test article, 1 mM ATP
T4 construct: AssayQuant Technologies, Inc. (contract assay)
T4 sequence (O75676 whole entry): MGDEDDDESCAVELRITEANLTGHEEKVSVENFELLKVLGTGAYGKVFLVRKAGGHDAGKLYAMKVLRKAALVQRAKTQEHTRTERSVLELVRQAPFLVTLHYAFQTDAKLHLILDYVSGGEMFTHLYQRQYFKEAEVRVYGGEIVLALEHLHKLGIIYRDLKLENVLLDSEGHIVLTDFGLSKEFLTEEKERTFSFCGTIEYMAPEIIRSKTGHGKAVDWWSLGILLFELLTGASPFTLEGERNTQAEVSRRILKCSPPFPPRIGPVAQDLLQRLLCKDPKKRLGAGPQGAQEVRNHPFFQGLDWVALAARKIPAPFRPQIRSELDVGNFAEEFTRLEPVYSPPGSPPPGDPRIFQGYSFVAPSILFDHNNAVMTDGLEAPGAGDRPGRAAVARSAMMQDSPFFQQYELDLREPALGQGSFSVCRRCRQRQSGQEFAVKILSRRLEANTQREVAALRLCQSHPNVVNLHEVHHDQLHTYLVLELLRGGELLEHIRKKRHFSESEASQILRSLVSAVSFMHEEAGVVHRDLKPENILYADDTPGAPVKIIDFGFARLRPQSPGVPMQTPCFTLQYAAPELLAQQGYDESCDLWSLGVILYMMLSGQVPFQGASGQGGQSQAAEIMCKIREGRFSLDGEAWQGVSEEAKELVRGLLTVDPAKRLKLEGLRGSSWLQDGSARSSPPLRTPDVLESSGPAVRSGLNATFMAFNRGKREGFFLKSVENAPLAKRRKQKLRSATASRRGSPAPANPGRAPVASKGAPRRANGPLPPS
Method in brief: as §1

MYLK/MLCK = target: T5, MYLK/MLCK (Homo sapiens, UniProt Q15746); details: 1 μM test article, 1 mM ATP
T5 construct: AssayQuant Technologies, Inc. (assay service)
Method in brief: as §1

HIPK2 = target: T6, HIPK2 (Homo sapiens, UniProt Q9H2X6); details: 1 μM test article, 1 mM ATP
T6 construct: AssayQuant Technologies, Inc. (service provider)
T6 sequence (Q9H2X6 whole entry, species assumed): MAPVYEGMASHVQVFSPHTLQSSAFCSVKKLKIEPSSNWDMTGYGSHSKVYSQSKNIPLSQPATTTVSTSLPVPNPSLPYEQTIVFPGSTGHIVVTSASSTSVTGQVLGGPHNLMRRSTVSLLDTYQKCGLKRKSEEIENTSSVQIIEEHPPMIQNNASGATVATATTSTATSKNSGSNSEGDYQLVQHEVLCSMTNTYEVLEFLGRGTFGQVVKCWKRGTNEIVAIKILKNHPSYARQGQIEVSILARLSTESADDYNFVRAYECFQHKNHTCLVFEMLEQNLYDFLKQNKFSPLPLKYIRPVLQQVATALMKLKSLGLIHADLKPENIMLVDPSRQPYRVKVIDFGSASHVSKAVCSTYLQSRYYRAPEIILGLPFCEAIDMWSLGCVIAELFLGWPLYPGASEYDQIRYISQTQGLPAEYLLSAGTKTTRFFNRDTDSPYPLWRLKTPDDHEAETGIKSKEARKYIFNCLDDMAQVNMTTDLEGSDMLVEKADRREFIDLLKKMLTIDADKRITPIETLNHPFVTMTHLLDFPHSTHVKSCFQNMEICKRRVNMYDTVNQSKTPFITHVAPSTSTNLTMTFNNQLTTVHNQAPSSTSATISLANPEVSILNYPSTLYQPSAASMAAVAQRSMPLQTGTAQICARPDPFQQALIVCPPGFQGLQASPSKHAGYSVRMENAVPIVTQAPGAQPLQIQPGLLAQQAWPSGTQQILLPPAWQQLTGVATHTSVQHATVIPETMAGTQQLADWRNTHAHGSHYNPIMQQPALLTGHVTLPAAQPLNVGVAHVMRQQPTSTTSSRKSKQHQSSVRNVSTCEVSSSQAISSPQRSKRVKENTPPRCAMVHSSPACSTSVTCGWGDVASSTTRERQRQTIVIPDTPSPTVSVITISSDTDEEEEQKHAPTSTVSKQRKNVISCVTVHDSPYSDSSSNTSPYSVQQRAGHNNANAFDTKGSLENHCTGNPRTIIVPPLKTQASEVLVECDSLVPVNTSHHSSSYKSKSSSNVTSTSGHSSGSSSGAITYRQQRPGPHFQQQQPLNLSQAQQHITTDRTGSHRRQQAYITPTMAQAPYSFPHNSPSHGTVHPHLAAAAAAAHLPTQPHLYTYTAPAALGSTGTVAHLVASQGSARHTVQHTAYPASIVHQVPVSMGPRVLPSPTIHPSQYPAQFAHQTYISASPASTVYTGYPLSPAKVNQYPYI
Method in brief: as §1

RET = RET (Homo sapiens, UniProt P07949); details: 1 μM test article, 1 mM ATP
Sequence of RET (P07949 29-1114, species assumed): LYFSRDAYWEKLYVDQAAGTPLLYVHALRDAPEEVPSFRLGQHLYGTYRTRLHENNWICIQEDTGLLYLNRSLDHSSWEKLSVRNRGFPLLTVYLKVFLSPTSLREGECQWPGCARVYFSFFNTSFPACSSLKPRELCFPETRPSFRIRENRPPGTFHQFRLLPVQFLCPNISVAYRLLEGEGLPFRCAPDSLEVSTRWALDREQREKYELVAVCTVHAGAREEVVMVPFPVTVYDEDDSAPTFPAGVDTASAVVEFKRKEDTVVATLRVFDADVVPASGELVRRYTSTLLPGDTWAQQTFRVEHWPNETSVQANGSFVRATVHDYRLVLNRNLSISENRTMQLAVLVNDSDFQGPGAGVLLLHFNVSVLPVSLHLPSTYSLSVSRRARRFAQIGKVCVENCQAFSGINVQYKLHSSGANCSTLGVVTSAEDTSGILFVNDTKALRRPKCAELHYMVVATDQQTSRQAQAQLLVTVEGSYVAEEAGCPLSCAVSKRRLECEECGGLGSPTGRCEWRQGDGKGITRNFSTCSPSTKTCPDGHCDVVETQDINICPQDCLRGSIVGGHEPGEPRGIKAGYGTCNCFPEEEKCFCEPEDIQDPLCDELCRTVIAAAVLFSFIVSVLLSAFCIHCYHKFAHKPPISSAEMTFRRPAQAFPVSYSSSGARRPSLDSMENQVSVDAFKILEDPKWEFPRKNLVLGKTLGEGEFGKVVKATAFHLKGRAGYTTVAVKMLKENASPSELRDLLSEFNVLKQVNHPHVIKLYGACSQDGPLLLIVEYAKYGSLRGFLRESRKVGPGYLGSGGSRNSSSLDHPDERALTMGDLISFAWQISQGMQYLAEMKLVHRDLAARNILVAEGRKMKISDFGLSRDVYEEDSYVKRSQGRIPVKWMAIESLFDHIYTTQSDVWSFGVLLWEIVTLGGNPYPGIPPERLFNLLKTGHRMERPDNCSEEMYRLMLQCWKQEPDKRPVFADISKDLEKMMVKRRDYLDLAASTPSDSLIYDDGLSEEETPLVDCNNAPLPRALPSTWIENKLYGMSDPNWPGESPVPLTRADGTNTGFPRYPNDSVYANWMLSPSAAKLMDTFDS
Method in brief: as §1

SGK3 = target: T7, SGK3 (Homo sapiens, UniProt Q96BR1); details: 1 μM test article, 1 mM ATP
T7 construct: AssayQuant Technologies, Inc. (contract assay)
T7 sequence (Q96BR1 1-496): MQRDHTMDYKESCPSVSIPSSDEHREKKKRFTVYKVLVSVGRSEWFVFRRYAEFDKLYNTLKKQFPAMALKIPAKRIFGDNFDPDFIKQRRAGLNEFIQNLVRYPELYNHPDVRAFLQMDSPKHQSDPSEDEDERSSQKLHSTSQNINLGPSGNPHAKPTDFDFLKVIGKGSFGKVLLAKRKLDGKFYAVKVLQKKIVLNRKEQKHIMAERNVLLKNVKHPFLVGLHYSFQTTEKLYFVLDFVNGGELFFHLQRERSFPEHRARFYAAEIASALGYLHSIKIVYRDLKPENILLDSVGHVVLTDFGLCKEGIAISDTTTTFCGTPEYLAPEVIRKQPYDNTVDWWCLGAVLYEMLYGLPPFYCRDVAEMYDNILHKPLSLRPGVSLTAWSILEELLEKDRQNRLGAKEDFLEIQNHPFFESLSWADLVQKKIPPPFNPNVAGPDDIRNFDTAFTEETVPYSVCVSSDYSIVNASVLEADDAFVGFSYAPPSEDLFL
Method in brief: as §1

[1] = PTK2B, 1 μM test article, 1 mM ATP, read-out: % Inhibition

T1 sequence (O60674 532-1132 limits assumed, species assumed): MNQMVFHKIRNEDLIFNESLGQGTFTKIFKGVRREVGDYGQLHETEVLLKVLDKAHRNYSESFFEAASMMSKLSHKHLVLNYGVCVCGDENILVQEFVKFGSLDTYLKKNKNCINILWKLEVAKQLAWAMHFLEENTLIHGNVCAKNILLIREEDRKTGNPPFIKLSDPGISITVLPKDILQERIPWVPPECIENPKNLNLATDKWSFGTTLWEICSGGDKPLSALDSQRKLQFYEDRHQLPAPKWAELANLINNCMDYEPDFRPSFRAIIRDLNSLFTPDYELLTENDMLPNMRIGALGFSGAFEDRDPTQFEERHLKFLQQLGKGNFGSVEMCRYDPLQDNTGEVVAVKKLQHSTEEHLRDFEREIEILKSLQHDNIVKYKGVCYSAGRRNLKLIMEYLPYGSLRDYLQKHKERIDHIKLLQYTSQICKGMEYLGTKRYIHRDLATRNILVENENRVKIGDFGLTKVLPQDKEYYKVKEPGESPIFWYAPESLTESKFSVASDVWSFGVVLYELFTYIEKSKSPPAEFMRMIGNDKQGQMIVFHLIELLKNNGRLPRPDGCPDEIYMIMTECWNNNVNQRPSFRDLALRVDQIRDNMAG

Row | SMILES | inhibition at 1 µM (JAK2(JH1JH2)) [%] | inhibition at 1 µM (JAK2(JH1)) [%] | inhibition at 1 µM (CHUK/IKKA) [%] | inhibition at 1 µM (PTK2B; [1]) [%] | inhibition at 1 µM (RPS6KA4/MSK2) [%] | inhibition at 1 µM (MYLK/MLCK) [%] | inhibition at 1 µM (HIPK2) [%] | inhibition at 1 µM (RET) [%] | inhibition at 1 µM (SGK3) [%] | inhibition at 1 µM (PTK2B) [%]
1 | C=CC(=O)N1CCCC(c2c(F)cc(C(N)=O)c3[nH]c4c(c23)CCCCC4)C1 (single isomer, unassigned) [Compound 5-6] | 1 | 11.4 | 4 | -16.1 | -6.1 | 19.7 | -18.6 | -24 | -28.1 | 
2 | C=CC(=O)N1CCC[C@@H](c2c(F)cc(C(N)=O)c3[nH]c4c(c23)CCC4)C1 [Compound 10-2, (S)-8-(1-acryloylpiperidin-3-yl)-7-fluoro-1,2,3,4-tetrahydrocyclo-penta[b]indole-5-carboxamide] | -9.8 | -0.8 | -14.5 | -8.8 | -21.2 | -27.4 | -66.1 | 6 | -32.5 | 
3 | C=CC(=O)N1CCC[C@@H](c2c(F)cc(C(N)=O)c3[nH]c4c(c23)CC2(CC4)CC2)C1 [Compound 6-2, (S)-5-(1-acryloylpiperidin-3-yl)-6-fluoro-1,2,4,9-tetrahydrospiro[carbazole-3,1′-cyclopropane]-8-carboxamide] | -9.4 | 10.3 | -36.4 |  | -23.2 | -24 | -55.4 | 23 | -19.9 | -15.4
